# Where two headings read alike, the source gives them in different places.
# Tests used:
# [1] = Rat in vivo MetID in pooled rat plasma; details: pooled rat plasma after IV 1 mg/kg
# Procedure: Therefore, in vitro and in vivo MetID were conducted to explore any possible different metabolites between the two systems. The in vitro and in vivo MetID samples were analyzed by a LC-qTOF-MS, and the data were used to elucidate a metabolite of α-amanitin using PeakView® and MetabolitePilot™. The structure of the metabolite of α-amanitin was predicted by MetabolitePilot™. The fragmentation pattern of the predicted metabolite ion from product ion scan was compared to the fragmentation pattern of the parent ion using PeakView®.
# For rat in vivo MetID, rat plasma samples collected after IV administration of α-amanitin with the dose of 1 mg/kg were pooled according to the Hamilton pooling method. Then 3 μL of DMSO was added to the 300 μL of pooled rat plasma. A control sample was made by mixing 300 μL of blank rat plasma and 3 μL of 0.5 mg/mL α-amanitin. Eight hundred microliter of 50% ACN in MeOH was added to the pooled rat plasma mixture and a control sample, respectively. Then the mixture was centrifuged at 10,000 rpm for 5 min. Then 900 μL of the supernatants was collected to a fresh E-tube and evaporated for 4 h. After evaporation, samples were reconstituted with 120 μL of 50% MeOH with 5 mM ammonium formate. After centrifugation at 10,000 rpm for 5 min, 100 μL of reconstituted sample was transferred to a LC-vial.
# The high-resolution TOF full scan was used for metabolite profiling. […]
# [2] = type: in vitro ADME, rat; details: for Long-term stability, mean accuracy / Freeze-thaw stability, mean accuracy / Short-term stability, mean accuracy: rat plasma, LC-qTOF-MS, triplicate or more; for Long-term stability, mean accuracy: 2 weeks, –20 °C; for Freeze-thaw stability, mean accuracy: 3 cycles, –20 °C and RT; for Short-term stability, mean accuracy: 4 h, RT
# Procedure: To evaluate the stability of α-amanitin in rat plasma under the actual experimental environments, some stability tests were also conducted. The accuracy (%) and precision (% CV) of the stability test met the acceptance criteria of ±25%, identifying α-amanitin was stable under the short-term, long-term, and freeze-thaw conditions.
# The method qualification was performed with “fit-for-purpose” criteria which are suitable for discovery stage research. The qualification contained seven levels of STD and three levels of QC in duplicate. […] Preliminary stability tests were performed at low, medium, and high QC in rat plasma. The stability test was performed under three different conditions: a short-term, a long-term, and a freeze-thaw condition. The short-term stability test was conducted at room temperature (RT) for 4 h. The long-term stability was conducted at –20 °C for 2 weeks. The freeze-thaw stability was conducted for three freeze and thaw cycles at –20 °C and RT. The extraction recovery of protein precipitation was evaluated by analyzing the difference between extracted Medium-QC (165 ng/mL) samples and post-extraction QC samples. The post-extraction QC sample was prepared by spiking the α-amanitin after protein precipitation.
# The precision and accuracy of the acceptance criteria for this qualification runs were within ± 25% which are also similar to the discovery-stage bioanalytical criteria in pharmaceutical industry. All experiments were performed in triplicate or more.
structure (smiles),measurement,setting,value
CC[C@H](C)[C@@H]1NC(=O)CNC(=O)[C@@H]2Cc3c([nH]c4cc(O)ccc34)[S@+]([O-])C[C@H](NC(=O)CNC1=O)C(=O)N[C@@H](CC(N)=O)C(=O)N1C[C@H](O)C[C@H]1C(=O)N[C@@H]([C@@H](C)[C@@H](O)CO)C(=O)N2 [α-amanitin],Other metabolites in in vivo rat plasma,[1],no other significant metabolites
same,"Long-term stability, mean accuracy",[2]; high QC 1820 ng/mL,103%
same,"Long-term stability, mean accuracy",[2]; low QC 15.0 ng/mL,106%
same,"Long-term stability, mean accuracy",[2]; medium QC 165 ng/mL,118%
same,"Freeze-thaw stability, mean accuracy",[2]; high QC 1820 ng/mL,114%
same,"Freeze-thaw stability, mean accuracy",[2]; low QC 15.0 ng/mL,94.9%
same,"Freeze-thaw stability, mean accuracy",[2]; medium QC 165 ng/mL,103%
same,"Short-term stability, mean accuracy",[2]; high QC 1820 ng/mL,95.7%
same,"Short-term stability, mean accuracy",[2]; low QC 15.0 ng/mL,81.6%
same,"Short-term stability, mean accuracy",[2]; medium QC 165 ng/mL,80.5%
same,Stability in rat plasma (in words),"[2]; short-term, long-term, and freeze-thaw conditions, acceptance criteria ±25%",stable
